Reference: patent US20260125347A1, “l,2-SUBSTITUTED 3-OXOPYRAZOLIDINE DERIVATIVES AS PROSTAGLANDIN E2 RECEPTOR 4 (EP4) AGONISTS FOR THE TREATMENT OF GASTROINTESTINAL AND PULMONARY DISEASES” (NXERA PHARMA UK LIMITED, priority 2022, published 2026)

Assays:
[1] = Unidirectional Caco-2 cell permeability assay; assay type: in vitro ADME; settings: human, Caco-2, 10 μM, apical pH 6.5, basolateral pH 7.4, 1 hour, 37° C., n=2
Description: (§1) Caco-2 cells (ECACC) were seeded onto 24-well Transwell plates at 2×10^5 cells per well and used in confluent monolayers after a 21 day culture at 37° C. under 5% CO2. Test compounds were incubated at 10 μM, 0.2% DMSO final, n=2 in assay buffer (Hanks balanced salt solution supplemented with 25 mM HEPES, adjusted to pH 6.5). Hanks balanced salt solution supplemented with 25 mM HEPES, adjusted to pH 7.4 (0.2% DMSO final) was used for the basolateral chamber (as receiver).
(§2) Incubations were performed at 37° C., with samples removed from both donor and acceptor chambers at T=0 and 1 hour and compound analysed by mass spectrometry (LC-MS/MS) including an analytical internal standard (0.5 μM carbamazepine).
(§3) Apparent permeability (Papp) values are shown in Table 3 and were determined from the relationship:
(§4) Where V is the volume of each Transwell compartment (apical 125 μL, basolateral 600 μL), and concentrations are the relative MS responses for compound (normalized to internal standard) in the donor chamber before incubation and acceptor chamber at the end of the incubation Area=area of cells exposed for drug transfer (0.33 cm^2).
(§5) Lucifer Yellow (LY) was added to the apical buffer in all wells to assess viability of the cell layer. As LY cannot freely permeate lipophilic barriers, a high degree of LY transport indicates poor integrity of the cell layer and wells with a LY Papp>10×10^6 cm/s were rejected.
(§6) Compound recovery from the wells was determined from MS responses (normalized to internal standard) in donor and acceptor chambers at the end of incubation compared to response in the donor chamber pre-incubation.

[2] = molecular target: T1, human EP4 (Homo sapiens, UniProt P35408); assay: cAMP Gs functional assay (HTRF cAMP dynamic-2) in HEK293 cells transfected with EP4 Bacmam virus; assay type: cell-based; settings: for EC50: HEK293 cells expressing human EP4, 30 mins at 37° C., mid-point of the curve, read-out: cAMP human EP4 pEC50 (converted); for cAMP human EP4 Emax: HEK293 cells expressing human EP4, unit assumed; for cAMP human EP4 Emax / Emax: positive control 10 μM PGE2; for Emax: HEK293, HEK293 cells expressing human EP4
T1 construct: expressed in transfected cells; host or cells: HEK293 cells transduced with EP4 BacMam virus (virus generated in SF9 cells)
T1 sequence (P35408 whole entry): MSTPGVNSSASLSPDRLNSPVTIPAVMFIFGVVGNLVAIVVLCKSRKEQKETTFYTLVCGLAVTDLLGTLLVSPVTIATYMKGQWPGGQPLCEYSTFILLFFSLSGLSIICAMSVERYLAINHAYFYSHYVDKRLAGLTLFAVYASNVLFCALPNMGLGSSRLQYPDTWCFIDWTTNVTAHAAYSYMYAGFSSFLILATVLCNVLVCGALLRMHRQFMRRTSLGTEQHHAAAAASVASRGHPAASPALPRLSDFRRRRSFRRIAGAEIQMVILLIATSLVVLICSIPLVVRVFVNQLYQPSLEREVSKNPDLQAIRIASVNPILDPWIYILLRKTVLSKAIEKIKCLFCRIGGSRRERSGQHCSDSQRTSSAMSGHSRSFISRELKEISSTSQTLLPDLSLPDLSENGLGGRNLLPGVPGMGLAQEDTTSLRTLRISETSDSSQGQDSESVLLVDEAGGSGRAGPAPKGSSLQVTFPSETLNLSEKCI
Description: Cloning, Baculovirus generation, large scale infection of HEK293 cells and membrane preparation: Human prostaglandin E2 receptor 4 (EP4) was cloned into pBacMam expression vector (GeneScript, UK). Transposition of EP4 DNA was performed using Invitrogen's Bac-to-Bac Baculovirus Expression Systems. P0 baculovirus was generated by transfecting SF9 Cells with bacmid DNA using Cellfectin II transfection reagent (ThermoFisher Scientific, UK). Following P0 generation P1 virus was then generated ready for large scale infection and membrane preparation. HEK293 cells were grown in DMEM (ThermoFisher Scientific, UK), supplemented with 10% heat inactivated fetal bovine serum (FBS). Cells were infected at a seeding density of 3.5 million cells/mL in 500 cm^3 flasks at 5% v/v EP4 Bacman. Expression was carried out over a 36 hr period at 37° C. with 5% CO2. The cells were removed using PBS and a cell scrapper. The cell culture was centrifuged at 2500 RPM for 10 mins at 4° C. The supernatant was then poured off and the pellet stored at −80° C. The pellet was defrosted and re-suspended in 15 mL of homogenising buffer (20 mM HEPES, 10 mM EDTA, pH 7.4). Then homogenised in mechanical homogeniser (VMR) for 10 seconds. The membrane was centrifuged in centrifuge tubes at 40,000 g for 15 mins at 4° C. The supernatant was poured away and re-suspended in 15 mL of homogenising buffer. Homogenised for 20 seconds. The membrane was centrifuged at 40,000 g for 45 mins at 4° C. The membrane was re-suspended in 3 mL of storage buffer (20 mM HEPES, 0.1 mM EDTA, pH 7.4) mixing well. The resulting membranes were then stored at −80° C. cAMP Gs Functional Assay: CAMP production following EP4 receptor activation was determined using the Homogeneous Time-Resolved Fluorescence (HTRF) CAMP dynamic-2 assay (Cisbio, France). HEK293 cells were transfected using a 0.5% EP4 Bacmam virus for 36 hours, before dissociating the cells, and freezing at −150° C. On the day of testing, increasing concentration of test compounds, alongside positive controls (10 μM PGE2 (Tocris, Abingdon, UK)) and negative control (DMSO (Sigma-Aldrich, UK) were added to a ProxiPlate-384 Plus, White 384-shallow well Mircoplate, (PerkinElmer, USA) using the ECHO dispense. Cells were defrosted in a water bath and resuspended in DMEM supplemented with 10% FBS before centrifuging at 1200 RPM for 5 mins to form a pellet. The pellet was resuspended in assay buffer (DMEM+0.5 mM IBMX (Tocris, Abingdon, UK)) to 0.5×10^6 cells/mL. Cell suspension, for a final assay concentration of 5000 cell/well was added using the multidrop to the pre-dispensed assay plate. The plate was then incubated at 37° C. for 30 mins, with 5% CO2. The CAMP production was determined as manufacturer's instructions, before plates were read on a PheraStar fluorescence plate reader (BMG LabTech, Germany).

[3] = tested on: Caco-2 cells; assay: Unidirectional Caco-2 cell permeability assay; assay type: in vitro ADME; settings: 10 μM, apical pH 6.5, basolateral pH 7.4, 1 hour, 37° C., n=2
Description: as §1, §2, §3, §4, §5, §6

## Cc1cc(S(N)(=O)=O)ccc1-c1cccc(C(O)CCN2CCC(=O)N2CCc2cc(F)c(C(=O)O)c(F)c2)c1 (single isomer, unassigned) [8; isomer 2]
[1]
  Papp A→B at 1 h, 10 μM: < 0.3 ×10⁻⁶ cm/s
[2]
  EC50: 0.0316 µM
  cAMP human EP4 Emax: 99%

## Cc1cc(C(N)=O)ccc1-c1cccc(C(O)CCN2CCC(=O)N2CCc2ccc(C(=O)O)cc2)c1 (single isomer, unassigned) [2; isomer 1]
[1]
  Papp A→B at 1 h, 10 μM: < 0.29 ×10⁻⁶ cm/s
[2]
  Emax: 95%
  EC50: 0.158 µM

## Cc1cc(OS(N)(=O)=O)ccc1-c1cccc(C(O)CCN2CCC(=O)N2CCc2ccc(C(=O)O)cc2)c1 (single isomer, unassigned) [4; isomer 2]
[3]
  Caco-2 Mean Papp A-B: 0.67 10^−6 cm/s
[2]
  EC50: 0.00251 µM
  cAMP human EP4 Emax: 97%

## Cc1cc(C(N)=O)ccc1-c1cccc(C(O)CCN2CCC(=O)N2CCc2cc(F)c(C(=O)O)c(F)c2)c1 (single isomer, unassigned) [5; isomer 1]
[2]
  Emax: 88%
  EC50: 0.794 µM

## Cc1cc(S(N)(=O)=O)ccc1-c1cccc(C(O)CCN2CCC(=O)N2CCc2ccc(C(=O)O)cc2)c1 (racemic) [3; racemate]
[1]
  Papp A→B at 1 h, 10 μM: 0.3 ×10⁻⁶ cm/s
[2]
  Emax: 97%
  EC50: 0.00251 µM

## Cc1cc(C(N)=O)ccc1-c1cccc(C(O)CCN2CCC(=O)N2CCc2ccc(-c3nnn[nH]3)cc2)c1 (racemic) [9; racemate]
[1]
  Papp A→B at 1 h, 10 μM: < 0.1 ×10⁻⁶ cm/s
[2]
  Emax: 97%
  EC50: 0.000158 µM

## Cc1cc(C(N)=O)ccc1-c1cccc(C(O)CCN2CCC(=O)N2CCc2ccc(-c3nnn[nH]3)cc2)c1 (single isomer, unassigned) [9; isomer 2]
[1]
  Papp A→B at 1 h, 10 μM: < 0.1 ×10⁻⁶ cm/s
[2]
  EC50: 0.000251 µM
  cAMP human EP4 Emax: 96%

## Cc1cc(O)ccc1-c1cccc(C(O)CCN2CCC(=O)N2CCc2ccc(C(=O)O)cc2)c1 (racemic) [1; racemate]
[1]
  Papp A→B at 1 h, 10 μM: 0.68 ×10⁻⁶ cm/s
[2]
  Emax: 97%
  EC50: 0.00398 µM

## Cc1cc(S(N)(=O)=O)ccc1-c1cccc(C(O)CCN2CCC(=O)N2CCc2ccc(C(=O)O)cc2)c1 (single isomer, unassigned) [3; isomer 1]
[3]
  Caco-2 Mean Papp A-B: 0.23 10^−6 cm/s
[2]
  Emax: 93%
  EC50: 0.0398 µM

## Cc1cc(S(N)(=O)=O)ccc1-c1cccc(C(O)CCN2CCC(=O)N2CCc2ccc(C(=O)O)cc2)c1 (single isomer, unassigned) [3; isomer 2]
[3]
  Caco-2 Mean Papp A-B: 0.72 10^−6 cm/s
[2]
  EC50: 0.00126 µM
  cAMP human EP4 Emax: 98%

## Cc1cc(C(N)=O)ccc1-c1cccc(C(O)CCN2CCC(=O)N2CCc2ccc(C(=O)O)c(O)c2)c1 (single isomer, unassigned) [7; isomer 2]
[3]
  Caco-2 Mean Papp A-B: <0.1 10^−6 cm/s
[2]
  EC50: 0.1 µM
  cAMP human EP4 Emax: 97%

## Cc1cc(S(N)(=O)=O)ccc1-c1cccc(C(O)CCN2CCC(=O)N2CCc2ccc(C(=O)O)c(O)c2)c1 (single isomer, unassigned) [6; isomer 2]
[2]
  EC50: 0.0501 µM
  cAMP human EP4 Emax: 96%

## Cc1cc(S(N)(=O)=O)ccc1-c1cccc(C(O)CCN2CCC(=O)N2CCc2ccc(C(=O)O)c(O)c2)c1 (single isomer, unassigned) [6; isomer 1]
[1]
  Papp A→B at 1 h, 10 μM: < 0.1 ×10⁻⁶ cm/s
[2]
  Emax: 97%
  EC50: 0.00398 µM

## Cc1cc(OS(N)(=O)=O)ccc1-c1cccc(C(O)CCN2CCC(=O)N2CCc2ccc(C(=O)O)cc2)c1 (racemic) [4; racemate]
[2]
  Emax: 97%
  EC50: 0.00631 µM

## Cc1cc(C(N)=O)ccc1-c1cccc(C(O)CCN2CCC(=O)N2CCc2ccc(C(=O)O)cc2)c1 (single isomer, unassigned) [2; isomer 2]
[3]
  Caco-2 Mean Papp A-B: <0.47 10^−6 cm/s
[2]
  EC50: 0.000501 µM
  cAMP human EP4 Emax: 98%

## Cc1cc(C(N)=O)ccc1-c1cccc(C(O)CCN2CCC(=O)N2CCc2cc(F)c(C(=O)O)c(F)c2)c1 (racemic) [5; racemate]
[2]
  Emax: 97%
  EC50: 0.0501 µM

## Cc1cc(O)ccc1-c1cccc(C(O)CCN2CCC(=O)N2CCc2ccc(C(=O)O)cc2)c1 (single isomer, unassigned) [1; isomer 1]
[1]
  Papp A→B at 1 h, 10 μM: 0.86 ×10⁻⁶ cm/s
[2]
  Emax: 97%
  EC50: 0.0501 µM

## Cc1cc(C(N)=O)ccc1-c1cccc(C(O)CCN2CCC(=O)N2CCc2ccc(C(=O)O)c(O)c2)c1 (single isomer, unassigned) [7; isomer 1]
[1]
  Papp A→B at 1 h, 10 μM: < 0.1 ×10⁻⁶ cm/s
[2]
  Emax: 99%
  EC50: 0.00398 µM

## Cc1cc(C(N)=O)ccc1-c1cccc(C(O)CCN2CCC(=O)N2CCc2ccc(-c3nnn[nH]3)cc2)c1 (single isomer, unassigned) [9; isomer 1]
[2]
  Emax: 93%
  EC50: 0.0398 µM

## Cc1cc(O)ccc1-c1cccc(C(O)CCN2CCC(=O)N2CCc2ccc(C(=O)O)cc2)c1 (single isomer, unassigned) [1; isomer 2]
[2]
  EC50: 0.002 µM
  cAMP human EP4 Emax: 99%

## Cc1cc(OS(N)(=O)=O)ccc1-c1cccc(C(O)CCN2CCC(=O)N2CCc2ccc(C(=O)O)cc2)c1 (single isomer, unassigned) [4; isomer 1]
[3]
  Caco-2 Mean Papp A-B: 0.3 10^−6 cm/s
[2]
  Emax: 93%
  EC50: 0.251 µM

## Cc1cc(S(N)(=O)=O)ccc1-c1cccc(C(O)CCN2CCC(=O)N2CCc2cc(F)c(C(=O)O)c(F)c2)c1 (single isomer, unassigned) [8; isomer 1]
[2]
  Emax: 96%
  EC50: 2.51 µM

## Cc1cc(C(N)=O)ccc1-c1cccc(C(O)CCN2CCC(=O)N2CCc2ccc(C(=O)O)cc2)c1 (racemic) [2; racemate]
[2]
  Emax: 99%
  EC50: 0.00316 µM

## Cc1cc(C(N)=O)ccc1-c1cccc(C(O)CCN2CCC(=O)N2CCc2cc(F)c(C(=O)O)c(F)c2)c1 (single isomer, unassigned) [5; isomer 2]
[1]
  Papp A→B at 1 h, 10 μM: < 0.1 ×10⁻⁶ cm/s
[2]
  EC50: 0.0158 µM
  cAMP human EP4 Emax: 96%
